Data from ChEMBL document CHEMBL3580555, “Design, Synthesis, and Biological Evaluation of Novel Imidazo[1,2-a]pyridine Derivatives as Potent c-Met Inhibitors” (ACS Med Chem Lett, 2015).

Assays:
[1] = Antiproliferative activity against human EBC1 cells after 72 hrs; conditions: EBC-1, 72 h
[2] = target: Hepatocyte growth factor receptor (Homo sapiens) (UniProt P08581); assay: Inhibition of C-Met (unknown origin) using polu (Glu,Tyr)4:1 substrate at 100 uM after 30 mins incubation by multi-well spectrophotometry
[3] = target: Hepatocyte growth factor receptor (Homo sapiens) (UniProt P08581); assay: Inhibition of C-Met (unknown origin) using polu (Glu,Tyr)4:1 substrate at 1 uM after 30 mins incubation by multi-well spectrophotometry

Hepatocyte growth factor receptor (Homo sapiens), sequence (P08581 whole entry): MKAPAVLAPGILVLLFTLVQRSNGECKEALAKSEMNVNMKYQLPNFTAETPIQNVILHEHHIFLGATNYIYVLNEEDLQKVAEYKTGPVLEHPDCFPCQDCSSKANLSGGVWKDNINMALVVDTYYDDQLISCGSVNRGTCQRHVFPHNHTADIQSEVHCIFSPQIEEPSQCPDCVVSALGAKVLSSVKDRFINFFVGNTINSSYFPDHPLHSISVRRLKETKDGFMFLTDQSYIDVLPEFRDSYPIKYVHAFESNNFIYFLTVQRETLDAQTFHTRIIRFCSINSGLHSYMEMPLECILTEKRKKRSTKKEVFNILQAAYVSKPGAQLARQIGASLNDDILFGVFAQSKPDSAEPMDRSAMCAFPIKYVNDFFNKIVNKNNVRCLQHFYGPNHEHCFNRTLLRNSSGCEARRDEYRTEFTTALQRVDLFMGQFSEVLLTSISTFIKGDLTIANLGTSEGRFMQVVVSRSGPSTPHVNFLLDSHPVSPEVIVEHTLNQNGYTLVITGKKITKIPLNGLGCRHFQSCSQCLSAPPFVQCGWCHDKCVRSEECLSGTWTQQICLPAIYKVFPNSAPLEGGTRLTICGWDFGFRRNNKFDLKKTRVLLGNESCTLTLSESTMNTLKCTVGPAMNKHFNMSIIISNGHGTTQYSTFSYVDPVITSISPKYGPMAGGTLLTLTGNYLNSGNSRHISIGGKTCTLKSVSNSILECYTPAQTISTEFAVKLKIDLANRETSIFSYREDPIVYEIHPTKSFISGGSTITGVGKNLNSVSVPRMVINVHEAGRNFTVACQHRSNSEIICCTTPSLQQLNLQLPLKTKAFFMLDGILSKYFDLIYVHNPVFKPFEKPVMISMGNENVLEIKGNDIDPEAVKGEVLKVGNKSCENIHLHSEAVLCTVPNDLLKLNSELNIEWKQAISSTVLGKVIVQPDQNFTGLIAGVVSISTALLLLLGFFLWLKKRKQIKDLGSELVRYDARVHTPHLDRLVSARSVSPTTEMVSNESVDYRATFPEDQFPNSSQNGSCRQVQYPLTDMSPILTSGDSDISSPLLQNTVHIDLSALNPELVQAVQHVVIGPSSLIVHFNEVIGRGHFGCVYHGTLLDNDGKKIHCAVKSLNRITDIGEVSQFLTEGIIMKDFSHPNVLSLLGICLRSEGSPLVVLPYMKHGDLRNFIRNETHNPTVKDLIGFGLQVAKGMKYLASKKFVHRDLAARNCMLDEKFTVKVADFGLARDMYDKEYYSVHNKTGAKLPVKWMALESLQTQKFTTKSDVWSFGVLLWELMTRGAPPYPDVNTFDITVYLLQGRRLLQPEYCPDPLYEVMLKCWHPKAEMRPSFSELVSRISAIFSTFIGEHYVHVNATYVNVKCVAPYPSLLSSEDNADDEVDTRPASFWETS

SMILES | IC50 [1] [nM] | further results
Fc1cc(-c2ccc(N3CCOCC3)nc2)cn2c(Cc3ccc4ncccc4c3)cnc12 | 225 | –
Fc1cc(-c2ccsc2)cn2c(Cc3ccc4ncccc4c3)cnc12 | 444 | –
Cn1cc(-c2cc(C#N)c3ncc(Cc4ccc5ncccc5c4)n3c2)cn1 | – | inhibition [2]: 34.5%
CN1CCN(C(=O)c2ccc(-c3cc(F)c4ncc(Cc5ccc6ncccc6c5)n4c3)cc2F)CC1 | 869 | –
O=C(NCc1ccccn1)c1ccc(-c2cc(F)c3ncc(Cc4ccc5ncccc5c4)n3c2)cc1F | 5550 | –
O=C(NC1CCOCC1)c1ccc(-c2cc(F)c3ncc(Cc4ccc5ncccc5c4)n3c2)cc1F | 70.5 | –
O=C(NCc1cc(F)cc(F)c1)c1ccc(-c2cc(F)c3ncc(Cc4ccc5ncccc5c4)n3c2)cc1F | 53.6 | –
CNC(=O)c1cc(-c2cc(F)c3ncc(Cc4ccc5ncccc5c4)n3c2)ccc1Cl | 946 | –
Cn1cc(-c2cc(F)c3ncc(Cc4ccc5ncccc5c4)n3c2)cn1 | 270 | –
Cn1cc(-c2cn3c(Cc4ccc5ncccc5c4)cnc3cc2Cl)cn1 | – | inhibition [3]: 24.5%
CNC(=O)c1cccc(-c2cc(F)c3ncc(Cc4ccc5ncccc5c4)n3c2)c1 | 400 | –
CNC(=O)c1cc(-c2cc(F)c3ncc(Cc4ccc5ncccc5c4)n3c2)ccc1F | 246 | –
OCCn1cc(-c2cc(F)c3ncc(Cc4ccc5ncccc5c4)n3c2)cn1 | 340 | –
N#Cc1cccc(-c2cc(F)c3ncc(Cc4ccc5ncccc5c4)n3c2)c1 | 107 | –
CN(C)CCNC(=O)c1ccc(-c2cc(F)c3ncc(Cc4ccc5ncccc5c4)n3c2)cc1F | 49 | –
O=C(NCCCN1CCCC1)c1ccc(-c2cc(F)c3ncc(Cc4ccc5ncccc5c4)n3c2)cc1F | 161 | –
COc1ccc(-c2cc(F)c3ncc(Cc4ccc5ncccc5c4)n3c2)cc1F | 407 | –
